Laboratory results published in paper PMC12175533, “A cell-cell communication signal from Enterobacter cloacae interfering with the signaling systems and virulence in Shigella sonnei” (Applied and Environmental Microbiology, 2025).

Target: T1, YjgB (ECL_RS22935), alcohol dehydrogenase (Enterobacter cloacae, UniProt A0A0H3CR94)
T1 construct: gene ECL_04598; full-length ORF in pET-28a(+), His-tag fusion, E. coli BL21(DE3) with ZnCl2, HisTrap
Experiment: HPLC product formation assay
Type: biochemical
Conditions: 200 uM substrate, 0.2 mM NADPH, 50 mM Tris-HCl, pH 8.0, 37 °C, 10 uM enzyme

T1 sequence (A0A0H3CR94 entry or part of it): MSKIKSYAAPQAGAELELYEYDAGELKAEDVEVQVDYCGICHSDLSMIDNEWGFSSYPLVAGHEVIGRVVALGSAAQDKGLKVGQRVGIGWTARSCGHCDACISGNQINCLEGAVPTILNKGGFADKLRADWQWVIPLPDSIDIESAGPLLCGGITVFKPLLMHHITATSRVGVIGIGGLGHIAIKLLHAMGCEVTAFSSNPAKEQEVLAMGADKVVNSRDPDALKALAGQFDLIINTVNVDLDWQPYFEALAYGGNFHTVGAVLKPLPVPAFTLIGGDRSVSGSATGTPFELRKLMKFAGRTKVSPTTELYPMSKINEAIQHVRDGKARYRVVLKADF

SMILES	HPLC product formation assay
O=CCc1c[nH]c2ccccc12 [indole-3-acetaldehyde]	In vitro enzymatic assays demonstrated that YjgB directly catalyzed the conversion of indole-3-acetaldehyde to indole-3-ethanol
OCCc1c[nH]c2ccccc12 [indole-3-ethanol]	YjgB directly catalyzed the conversion of indole-3-acetaldehyde to indole-3-ethanol
